For ten molecules, Ki results are on record in ChEMBL document CHEMBL1133711 (J Med Chem, 2000).

Usually Ki stands for a measure of affinity in units of concentration, obtained from inhibition or displacement. Low values mean higher affinity, high ones lower affinity.

Structures are written as SMILES.

Sequence of 5-hydroxytryptamine receptor 6 (P50406 whole entry): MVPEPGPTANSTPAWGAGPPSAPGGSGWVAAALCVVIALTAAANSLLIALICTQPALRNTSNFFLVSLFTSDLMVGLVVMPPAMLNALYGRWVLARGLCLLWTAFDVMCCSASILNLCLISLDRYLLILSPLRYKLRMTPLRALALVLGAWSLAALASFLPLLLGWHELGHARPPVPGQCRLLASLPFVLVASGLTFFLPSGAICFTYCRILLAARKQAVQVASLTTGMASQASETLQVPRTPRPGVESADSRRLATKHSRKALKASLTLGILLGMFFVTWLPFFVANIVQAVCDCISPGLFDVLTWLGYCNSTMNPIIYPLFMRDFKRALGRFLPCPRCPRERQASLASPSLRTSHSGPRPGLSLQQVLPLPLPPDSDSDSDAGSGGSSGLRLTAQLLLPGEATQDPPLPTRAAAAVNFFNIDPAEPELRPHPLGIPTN

The first assay addresses 5-hydroxytryptamine receptor 6 (Homo sapiens, UniProt P50406). As to the kind of experiment: Binding affinity for human 5-hydroxytryptamine 6 receptor expressed in HEK 293 human embryonic kidney cells, [3H]-lysergic acid diethylamide as radioligand. In kind it is cell-based, HEK293.
`COc1ccc2[nH]c(-c3ccccc3)c(CCN(C)C)c2c1` came in with a Ki of 54 nM.

Turning to `COc1ccc2[nH]c(C)c(CCN)c2c1`, affinity was put at a Ki of 98 nM.

For `CCn1cc(CCN(C)C)c2cc(OC)ccc21`, the Ki is 240 nM.

In the case of `COc1ccc2[nH]c(C)c(CCN(C)C)c2c1`, the inhibition constant (Ki) was 80 nM.

In the case of `CCc1[nH]c2ccc(OC)cc2c1CCN(C)C`, the Ki turned out to be 52 nM.

Molecule `CCCn1cc(CCN(C)C)c2cc(OC)ccc21` gave a Ki of 200 nM.

The molecule `Cc1[nH]c2ccccc2c1CCN(C)C` came in with an inhibition constant (Ki) of 300 nM.

Consider `COc1ccc2c(c1)c(CCN(C)C)cn2C`, for which the Ki worked out at 510 nM.

As to `COc1ccc2c(c1)c(CCN(C)C)cn2C(C)C`, the inhibitory constant (Ki) stood at 130 nM.

With `Cc1[nH]c2ccc(O)cc2c1CCN`, the inhibition constant (Ki) was found to be 46 nM.

The target of a further assay is T1, 5-hydroxytryptamine receptor 3A (Homo sapiens, UniProt P46098).
T1 sequence (P46098 whole entry): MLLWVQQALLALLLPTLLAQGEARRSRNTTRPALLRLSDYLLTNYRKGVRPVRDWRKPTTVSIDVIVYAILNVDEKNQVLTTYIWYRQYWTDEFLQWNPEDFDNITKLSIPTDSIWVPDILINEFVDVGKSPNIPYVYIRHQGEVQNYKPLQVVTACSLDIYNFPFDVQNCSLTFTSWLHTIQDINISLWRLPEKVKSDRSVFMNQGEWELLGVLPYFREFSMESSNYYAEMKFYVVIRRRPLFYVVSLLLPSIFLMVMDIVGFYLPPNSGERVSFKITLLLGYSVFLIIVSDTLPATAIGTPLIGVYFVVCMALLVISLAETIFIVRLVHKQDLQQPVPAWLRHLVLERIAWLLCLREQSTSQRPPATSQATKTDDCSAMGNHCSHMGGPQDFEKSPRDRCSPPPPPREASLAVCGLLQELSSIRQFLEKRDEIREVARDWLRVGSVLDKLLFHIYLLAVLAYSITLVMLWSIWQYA
Description: Compound was evaluated for its binding affinity towards 5-hydroxytryptamine 3 receptor.
The molecule `COc1ccc2[nH]c(C)c(CCN)c2c1` had a Ki of over 10000 nM.

Take `Cc1[nH]c2ccc(O)cc2c1CCN`: the affinity corresponds to a Ki of 1200 nM.
